According to patent publication US4513008A, “Virucidal compositions and therapy” (The Vinoxen Company, Inc., priority 1982, dated 1985):
“Also recorded” adds a separate entry of the source.

Columns and labels:
HSV-2 = experiment: In vivo mouse bioassay: intravaginal HSV-2 infection, topical treatment; design: species or system HSV-2 strain 333 in female Swiss Webster mice; key to Max. Lesion Score: 0: no clinical signs of vaginal infection; ±: slight perivaginal redness; perivaginal redness and swelling of 1-2 mm; perivaginal redness and swelling of 2-3 mm; perivaginal and perianal redness and swelling of 3-4 mm; perivaginal and perianal redness and swelling of 4 mm or more, with exudate; conditions: for # Infected, Day 14 / # of Deaths, Day 14: 10 animals/group
herpes virus type 2 = experiment: Guinea pig bioassay: intravaginal HSV-2 infection, topical treatment; type: in vivo; design: key to MVL Score Day 5 / MVL Score Day 6 / MVL Score Day 7 / MVL Score Day: lesion severity scored on 0 to 4 scale; conditions: for MVL Scores Days 5-8: 0 to 4 scale; for Infected, Treated Surv/Total: 28 days; for MVL Score Day: last day; for reduction in lesion scores, in words: guinea pigs, topical
Description: In both studies, DHA was compared with ACV in a controlled study for effectiveness in reducing the occurrence and the severity of lesions resulting from infection by HSV-2 and in reducing mortality resulting from the virus infection.
Using substantially the procedures of Pancic et al., loc. cit., the topical activity of DHA, a representative and preferred virucide for use in the present method, was evaluated in mice and in guinea pigs. Both evaluations included comparative testing against ACV and the mouse tests included a comparison of two different vehicles.
A blind comparative test was carried out on guinea pigs using coded substances labeled A through D. The testers were told only that one of the four substances was ACV, that the other three coded samples were the same material, in concentrations of 0.1, 1.0 and 10 mg/ml, and that all four samples were formulated in a polyethylene glycol 1000 (PEG-1000) vehicle. A separate sample of the PEG-1000 was also submitted to serve as a placebo for treating virus control animals. The materials and experimental protocol is shown below.
Animals. Female Hartley strain albino guinea pigs weighing about 450-500 g were used. The animals were quarantined 24 hr prior to use in this study, and maintained 5 to a 32"×32"×9" stainless steel cage on Wayne guinea pig diet and water ad libitum.
Virus. Strain E194 of herpes virus type 2 was used. […] The virus was held at -90° C. until used.
Drugs. The substances tested consisted of four bottles labelled "A", "B", "C", and "D" with no identifying key. The samples were: A, 0.1 mg/ml DHA (0.003 mmol/ml); B, 5% w/w ACV (0.22 mmol/ml); C, 1 mg/ml DHA (0.03 mmol/ml); and D, 10 mg/ml DHA ([…]). […] All were treated as light-sensitive compounds.
Experimental Protocol. The guinea pigs were infected by applying a virus-soaked swab intravaginally, with agitation, for 20 seconds. […] Treatment began 20 hr later, with the compound or placebo applied topically intravaginally, perivaginally, and perianally using cotton swabs soaked in the respective substance. Treatment continued three times daily (8 a.m., noon, 4 p.m.) for 7 days. Ten infected animals were used for each coded substance, with twenty used for virus controls. Five sham-infected animals were concomitantly treated with each coded substance to serve as toxicity controls. Two guinea pigs were held separately to serve as normal untreated controls.
On days 5 through 8 post-virus inoculation, the genital area was carefully examined and signs of irritation in the toxicity controls and lesion severity in injected animals was scored on a 0 to 4 scale using the same scale as in the mouse bioassay. The results were scored as average daily lesion (ADL) scores for each group, and as mean vaginal lesion (MVL) scores, calculated as the mean of the ADL scores for days 5-8. The maximum mean score for the toxicity control animals was also determined.
On day 6 prior to the 8 a.m. treatment, intravaginal and perivaginal areas of each infected guinea pig were uniformly swabbed with sterile cotton swabs. The swab for each animal was placed in 1.0 ml of sterile Eagles minimum essential medium and immediately frozen at -90° C.; several days later all were thawed and each swab-containing sample vortexed for 15 seconds and then the sample was diluted through a series of 10-fold dilutions in sterile medium. Each dilution was assayed for virus in triplicate by adding 0.1 ml to an established monolayer of MA-104 cells in 96-well disposable plastic microplates. The plates were sealed, incubated at 72 hr at 37° C., and virus-induced cytopathic effect noted microscopically.
Data Analysis. Increases in survivors were analyzed using chi square analysis with Yate's correction. Mean survival times (MST) of animals dying on or before […] were determined for each group, and evaluated using the t test.

[1] = C: 1 mg/ml DHA in PEG-1000, P < 0.05
[2] = D: 10 mg/ml DHA in PEG-1000, P < 0.05

## CCC=CCC=CCC=CCC=CCC=CCC=CCCC(=O)O [DHA, 4,7,10,13,16,19 Docosahexaenoic Acid]
HSV-2; DMSO & High DHA (10 mg/ml)
  % Mortality: 20%
  Day of Maximum % Morbidity: 7 days
  Maximum % Morbidity: 40%
  Mean Day of Death: 8.5 days
HSV-2; DMSO & Low DHA (1 mg/ml)
  % Mortality: 30%
  Day of Maximum % Morbidity: 7 days
  Maximum % Morbidity: 40%
  Mean Day of Death: 11.7 days
HSV-2; High DHA 10 mg/ml in DMSO
  # Infected, Day 14: 4
  # of Deaths, Day 14: 2
HSV-2; High DHA 10 mg/ml in PEG
  # Infected, Day 14: 5
  # of Deaths, Day 14: 3
HSV-2; Low DHA 1 mg/ml in DMSO
  # Infected, Day 14: 4
  # of Deaths, Day 14: 2
HSV-2; Low DHA 1 mg/ml in PEG
  Max. Lesion Score: ±
  # Infected, Day 14: 1
  # of Deaths, Day 14: 0
HSV-2; Ointment & High DHA (10 mg/ml)
  % Mortality: 30%
  Day of Maximum % Morbidity: 7 days
  Maximum % Morbidity: 50%
  Mean Day of Death: 11.7 days
HSV-2; Ointment & Low DHA (1 mg/ml)
  % Mortality: 0%
  Day of Maximum % Morbidity: 6 days
  Maximum % Morbidity: 10%
  Mean Day of Death: > 14 days
HSV-2; topical, HSV-2 infected mice
  efficacy in mice in words: effective virucidal activity against HSV-2, especially the low dose ointment preparation; also recorded: highly effective in comparison with ACV in reducing lesions and in reducing mortality rates in mice; also recorded: a low dose of DHA in the particular ointment vehicle used for test purposes appeared to have a higher activity than a high dose of the same material in the same vehicle
Herpes virus type 2; A: 0.1 mg/ml DHA in PEG-1000
  MST (mean survival time): 12.3 days
  MVL Score Day 5: 2.4
  MVL Score Day 6: 3.0
  MVL Score Day 7: 3.5
  MVL Scores Days 5-8: 3.2
  Infected, Treated Surv/Total: 6/10
  MVL Score Day: 3.8
Herpes virus type 2; C: 1 mg/ml DHA in PEG-1000
  MST (mean survival time): 13.3 days
  MVL Score Day 5: 1.7
  MVL Score Day 7: 2.8
  Infected, Treated Surv/Total: 4/10
  MVL Score Day: 3.1
Herpes virus type 2; [1]
  MVL Scores Days 5-8: 2.4
  MVL Score Day 6: 2.3
Herpes virus type 2; D: 10 mg/ml DHA in PEG-1000
  MST (mean survival time): 16.5 days
  MVL Score Day 7: 3.0
  Infected, Treated Surv/Total: 8/10
  MVL Score Day: 3.1
Herpes virus type 2; [2]
  MVL Scores Days 5-8: 2.4
  MVL Score Day 5: 1.5
  MVL Score Day 6: 2.1
Herpes virus type 2
  reduction in lesion scores, in words: neither ACV nor the lowest dosage of DHA were able to achieve a statistically significant reduction in lesion scores
Herpes virus type 2; listed as C
  reduction in lesion scores, in words: statistically significant reductions in lesion scores
Herpes virus type 2; listed as D
  reduction in lesion scores, in words: statistically significant reductions in lesion scores
